The values below come from EP1001810B1, “PHARMACEUTICAL COMPOSITION WITH NEUROTROPHIC-LIKE BIOLOGICAL ACTIVITY” (McGill University, priority 1997, dated 1999).

Structures are written as SMILES. Where a SMILES comes first, the peptide text is derived from it. Bridges are numbered along the chain shown (N, C = ends).

In one series the target is TrkA (Homo sapiens, UniProt P04629). The settings on record: binds TrkA specifically (LeSauteur 1995); read-out: apparent Kd; cited from earlier work.
The subject of the next series is 4-3.6 cells. Kind of series: Cell survival in SFM challenged with tyrosine kinase inhibitor K252a. Type of series: cell-based, rat. Conditions: highest concentration tested (500 nM). The procedure:
5,000 cells/well in protein-free media (PFHM-II, GIBCO, Toronto, Ontario) containing 0.1% BSA (Crystalline fraction V, Sigma, St. Louis MO) were added to 96 well plates (Falcon, Mississauga, Ontario). The cultures were untreated or supplemented with serial dilutions of neurotrophins (positive control), test mAbs, or mouse IgG (negative control). The survival profile of the cells was quantitated using the MTT colorimetric assay after 48-72 hours. Percent protection was standardized relative to 1 nM NGF concentrations using the MTT optical density (OD 590 nm) and following formula: [(ODtest -ODuntreated )/(OD1nM NGF-ODuntreated )] × 100. [formula] The OD of untreated samples (SFM only) were ~10% of 1 nM NGF control.
Some survival experiments were also carried out in the presence of various concentrations of the tyrosine kinase inhibitor K252a. The concentrations of K252a used were previously reported.
Assays were done as described in Table 1 legend. 4-3.6 cell survival in SFM achieved by incubation with the indicated ligands. Optimal ligand concentrations were used as per Table 3 (1 nM NGF, 5 nM 5C3 mAb and 5 nM 5C3 + 0.5 nM MC192 mAbs) . Cells were challenged with various concentrations of K252a and % survival was calculated using 1 nM NGF as 100% standard. K252a inhibits both NGF and mAb-mediated survival in a dose dependent manner and to a similar relative degree.

TrkA, sequence (P04629 33-796, species assumed): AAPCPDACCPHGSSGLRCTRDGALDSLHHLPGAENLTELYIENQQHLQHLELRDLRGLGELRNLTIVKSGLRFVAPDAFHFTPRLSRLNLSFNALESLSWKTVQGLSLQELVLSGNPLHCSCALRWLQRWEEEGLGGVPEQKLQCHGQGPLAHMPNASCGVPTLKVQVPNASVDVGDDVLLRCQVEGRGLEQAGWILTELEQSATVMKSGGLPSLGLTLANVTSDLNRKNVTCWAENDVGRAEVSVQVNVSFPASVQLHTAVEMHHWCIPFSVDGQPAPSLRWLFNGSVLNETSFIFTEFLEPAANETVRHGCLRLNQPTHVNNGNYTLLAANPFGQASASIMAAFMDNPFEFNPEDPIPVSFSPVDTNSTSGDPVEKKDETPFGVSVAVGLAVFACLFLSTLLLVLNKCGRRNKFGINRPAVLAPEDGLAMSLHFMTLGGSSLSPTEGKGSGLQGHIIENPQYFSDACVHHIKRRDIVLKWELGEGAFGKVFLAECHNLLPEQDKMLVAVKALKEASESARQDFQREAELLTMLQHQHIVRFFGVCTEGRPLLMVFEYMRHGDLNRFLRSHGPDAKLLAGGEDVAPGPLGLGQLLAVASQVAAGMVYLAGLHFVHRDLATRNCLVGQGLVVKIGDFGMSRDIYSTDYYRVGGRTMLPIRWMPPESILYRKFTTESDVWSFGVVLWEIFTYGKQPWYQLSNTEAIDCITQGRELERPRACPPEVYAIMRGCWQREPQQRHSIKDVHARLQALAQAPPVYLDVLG

In the case of `CC(=O)N[C@@H](Cc1ccc(O)cc1)C(=O)N[C@H]1CSSC[C@@H](C(=O)N[C@@H](Cc2ccc(O)cc2)C(=O)O)NC(=O)[C@H](CCC(N)=O)NC(=O)[C@H](CCCCN)NC(=O)[C@H](CCC(=O)O)NC(=O)[C@H](CC(=O)O)NC(=O)[C@H]([C@@H](C)O)NC1=O` [C(92-96)] (Ac-YCTDEKQCY-OH; disulfide 2-8), at TrkA, the Kd is ~100 nM.

As for `COC(=O)[C@@]1(O)C[C@H]2O[C@]1(C)n1c3ccccc3c3c4c(c5c6ccccc6n2c5c31)C(=O)NC4` [K252a], in the series on 4-3.6 cells, the “toxicity to 4-3.6 cells” value is “not toxic”.
